pIC50: −log10 of the molar value. Numbered stars: 1 amine (or outer) side, 2 acyl side, 3 side chain; on linkers, the order of the positions; unused ones are H or OH. Bridge positions count the residues as written; N and C are the ends. Square brackets hold non-standard residues; d marks the D form. Peptide text beside a SMILES is read from it. * marks the point of attachment. hPhe(3-Cl-4-CF3) = N[C@@H](CCc1ccc(C(F)(F)F)c(Cl)c1)C(=O)O; hPhe(3-F,4-CF3) = N[C@@H](CCc1ccc(C(F)(F)F)c(F)c1)C(=O)O; NMePhe(2-CF3) = CN[C@@H](Cc1ccccc1C(F)(F)F)C(=O)O; NMeAla(4-thiazolyl) = CN[C@@H](Cc1cscn1)C(=O)O; X24 = COc1cncc(C[C@@H](C(=O)[*:2])N(C)[*:1])c1; NMe3Pal(6-Me) = CN[C@@H](Cc1ccc(C)nc1)C(=O)O; NMePhe(4-Cl) = CN[C@@H](Cc1ccc(Cl)cc1)C(=O)O; NMePhe(4-Me) = CN[C@@H](Cc1ccc(C)cc1)C(=O)O; NMePhe(4-F) = CN[C@@H](Cc1ccc(F)cc1)C(=O)O; NMedβ3hAla = C[C@H](CC(=O)[*:2])N(C)[*:1]; X72 = O=C([C@@H]1Cc2ccccc2N1[*:1])[*:2]; NMeGly(cPent) = CN[C@H](C(=O)O)C1CCCC1; Phe(2-Cl) = N[C@@H](Cc1ccccc1Cl)C(=O)O; Phe(3-I) = N[C@@H](Cc1cccc(I)c1)C(=O)O; NMeY = CN[C@@H](Cc1ccc(O)cc1)C(=O)O; NMeCha = CN[C@@H](CC1CCCCC1)C(=O)O; N(isopentyl)Gly = CC(C)CCNCC(=O)O; NMehLeu = CN[C@@H](CCC(C)C)C(=O)O; NMeChg = CN[C@H](C(=O)O)C1CCCCC1; NMeF = CN[C@@H](Cc1ccccc1)C(=O)O; NMeD = CN[C@@H](CC(=O)O)C(=O)O; NMeL = CN[C@@H](CC(C)C)C(=O)O; Chg = N[C@H](C(=O)O)C1CCCCC1; NMeV = CN[C@H](C(=O)O)C(C)C; d(β3hA) = C[C@@H](N)CC(=O)O; Azetidin(1-yl) = C1CN(*)C1; NMeA = CN[C@@H](C)C(=O)O; NMeAib = CNC(C)(C)C(=O)O; Nle = CCCC[C@H](N)C(=O)O; Piperidide = C1CCN(*)CC1; Ac5c = NC1(C(=O)O)CCCC1; Aze = O=C(O)[C@@H]1CCN1; Isopentyl = CC(C)CC*; CF3 = FC(F)(F)*; Sar = CNCC(=O)O Where only a bound is given, the exact number is not on record here.

The subject of the assay is Human pancreatic cancer cell line AsPC-1 (G12D mutation Kras). The experiment in a line: AsPC-1 cell growth inhibition (AsPC-1 CGI). Format: cell-based. To be noted: read-out: AsPC-1 cell growth inhibition, 50% growth inhibitory concentration (IC50 value); 96 hours, CellTiter-Glo, values classified in ranges.
Description: Test compounds were serially dilated with dimethyl sulfoxide, and 200 nL was then dispensed to a U-bottom 96-well plate using Labcyte Echo. […] The cell suspension was dispensed to a. plate containing a test compound at 100 μL per well and incubated at 37° C. in a 5% carbon dioxide gas incubator. 96 hours later, 80 μL of CellTiter-Glo (Promega) was added to each well and fluorescence was measured.
Take `CC[C@H](C)[C@@H]1NC(=O)[C@H](CC(C)C)N(C)C(=O)C[C@@H](C(=O)N2CCCCC2)N(C)C(=O)[C@H](C2CCCCC2)N(C)C(=O)C2(CCCC2)NC(=O)[C@H](Cc2cncc(OC)c2)N(C)C(=O)[C@H](CCc2ccc(C(F)(F)F)c(Cl)c2)NC(=O)CN(C)C(=O)[C@H](CC2CCCCC2)N(C)C(=O)[C@@H]2CCN2C(=O)CN(C)C1=O` [Compound 770] ([NMeL]I[Sar][Aze][NMeCha][Sar][hPhe(3-Cl-4-CF3)][X24][Ac5c][NMeChg][NMeD]-Piperidide; lactam N-11): the pIC50 was less than 6.30.
Consider `CC[C@H](C)[C@@H]1NC(=O)[C@H](CC(C)C)N(C)C(=O)C[C@@H](C)N(C)C(=O)[C@H](CC(C)C)NC(=O)C(C)(C)N(C)C(=O)[C@H](C2CCCCC2)NC(=O)[C@H](CCc2ccc(C(F)(F)F)c(F)c2)NC(=O)CN(C)C(=O)[C@H](Cc2ccc(Cl)cc2)N(C)C(=O)CN(C)C(=O)CN(C)C1=O` [Compound 772] (cyclo([Chg][NMeAib]L[NMedβ3hAla][NMeL]I[Sar][Sar][NMePhe(4-Cl)][Sar][hPhe(3-F,4-CF3)])), for which the pIC50 was less than 6.30.
Take `CC[C@H](C)[C@@H]1NC(=O)[C@H](CC(C)C)N(C)C(=O)C[C@@H](C(=O)N2CCCCC2)N(C)C(=O)[C@H](CC(C)C)NC(=O)C(C)(C)N(C)C(=O)[C@H](Cc2ccccc2Cl)NC(=O)[C@H](Cc2cccc(I)c2)NC(=O)CN(C)C(=O)[C@H](Cc2ccc(C)cc2)N(C)C(=O)[C@@H]2CCN2C(=O)CN(C)C1=O` [Compound 781] ([NMeL]I[Sar][Aze][NMePhe(4-Me)][Sar][Phe(3-I)][Phe(2-Cl)][NMeAib]L[NMeD]-Piperidide; lactam N-11): the pIC50 was less than 6.30.
Consider `CC[C@H](C)[C@@H]1NC(=O)[C@H](C)N(C)C(=O)C[C@@H](C)NC(=O)[C@H](C(C)C)N(C)C(=O)[C@H](Cc2ccccc2)N(C)C(=O)[C@H](CC(C)C)N(C)C(=O)[C@H](CCc2ccc(C(F)(F)F)c(F)c2)NC(=O)CN(C)C(=O)[C@H](Cc2ccc(Cl)cc2)N(C)C(=O)[C@@H]2CCN2C(=O)CN(C)C1=O` [Compound 782] (cyclo([Aze][NMePhe(4-Cl)][Sar][hPhe(3-F,4-CF3)][NMeL][NMeF][NMeV][d(β3hA)][NMeA]I[Sar])), for which the pIC50 was less than 6.30.
Turning to `CC[C@H](C)[C@@H]1NC(=O)[C@H](CC(C)C)N(C)C(=O)C[C@@H](C(=O)N2CCCCC2)N(C)C(=O)[C@H](C2CCCCC2)N(C)C(=O)C2(CCCC2)NC(=O)[C@H](Cc2ccc(C)nc2)N(C)C(=O)[C@H](CCc2ccc(C(F)(F)F)c(Cl)c2)NC(=O)CN(C)C(=O)[C@H](CC2CCCCC2)N(C)C(=O)[C@@H]2CCN2C(=O)CN(C)C1=O` [Compound 786] ([NMeL]I[Sar][Aze][NMeCha][Sar][hPhe(3-Cl-4-CF3)][NMe3Pal(6-Me)][Ac5c][NMeChg][NMeD]-Piperidide; lactam N-11), the pIC50 was less than 6.30.
As for `CC(C)CCOC[C@@H]1NC(=O)[C@H](CC(C)C)N(C)C(=O)C[C@@H](C(=O)N2CCCCC2)N(C)C(=O)[C@H](C2CCCCC2)N(C)C(=O)C2(CCCC2)NC(=O)[C@@H]2CCCN2C(=O)[C@H](CCc2ccc(C(F)(F)F)c(Cl)c2)NC(=O)CN(C)C(=O)[C@H](CC2CCCCC2)N(C)C(=O)CN(C)C(=O)CN(C)C1=O` [Compound 794] ([NMeL]S(Isopentyl)[Sar][Sar][NMeCha][Sar][hPhe(3-Cl-4-CF3)]P[Ac5c][NMeChg][NMeD]-Piperidide; lactam N-11), the pIC50 is less than 6.30.
Consider `CC[C@H](C)[C@@H]1NC(=O)[C@H](CC(C)C)N(C)C(=O)C[C@@H](C)NC(=O)[C@H](C(C)C)N(C)C(=O)C2(CCCC2)NC(=O)[C@@H]2CCCN2C(=O)[C@H](CCc2ccc(C(F)(F)F)c(Cl)c2)NC(=O)CN(C)C(=O)[C@H](CC2CCCCC2)N(C)C(=O)CN(CCC(C)C)C(=O)CN(C)C1=O` [Compound 801] (cyclo([Ac5c][NMeV][d(β3hA)][NMeL]I[Sar][N(isopentyl)Gly][NMeCha][Sar][hPhe(3-Cl-4-CF3)]P)), for which the pIC50 was less than 6.30.
The same measure for `CC[C@H](C)[C@@H]1NC(=O)[C@H](CC(C)C)N(C)C(=O)C[C@@H](C(=O)N(C)C)N(C)C(=O)[C@H](C2CCCC2)N(C)C(=O)[C@H](C)NC(=O)[C@H](Cc2cscn2)N(C)C(=O)[C@H](CCc2ccc(C(F)(F)F)c(Cl)c2)NC(=O)CN(C)C(=O)[C@H](CC2CCCCC2)N(C)C(=O)[C@@H]2CCN2C(=O)[C@H](C)N(C)C1=O` [Compound 805] ([NMeL]I[NMeA][Aze][NMeCha][Sar][hPhe(3-Cl-4-CF3)][NMeAla(4-thiazolyl)]A[NMeGly(cPent)][NMeD]-NMe2; lactam N-11): less than 6.30; for `CC[C@H](C)[C@@H]1NC(=O)[C@H](CCC(C)C)N(C)C(=O)C[C@@H](C(=O)N2CCC2)N(C)C(=O)[C@H](C2CCCC2)N(C)C(=O)C2(CCCC2)NC(=O)[C@@H]2CCCN2C(=O)[C@H](CCc2ccc(C(F)(F)F)c(Cl)c2)NC(=O)CN(C)C(=O)[C@H](CC2CCCCC2)N(C)C(=O)[C@@H]2CCN2C(=O)[C@H](C)N(C)C1=O` [Compound 806] ([NMehLeu]I[NMeA][Aze][NMeCha][Sar][hPhe(3-Cl-4-CF3)]P[Ac5c][NMeGly(cPent)][NMeD]-{Azetidin(1-yl)}; lactam N-11): not below 7.70; for `CC[C@H](C)[C@@H]1NC(=O)[C@H](CC(C)C)N(C)C(=O)C[C@@H](C(=O)N2CCCCC2)N(C)C(=O)[C@H](C2CCCCC2)N(C)C(=O)C2(CCCC2)NC(=O)[C@@H]2Cc3ccccc3N2C(=O)[C@H](CCc2ccc(C(F)(F)F)c(Cl)c2)NC(=O)CN(C)C(=O)[C@H](CC2CCCCC2)N(C)C(=O)[C@@H]2CCN2C(=O)[C@H](C)N(C)C1=O` [Compound 812] ([NMeL]I[NMeA][Aze][NMeCha][Sar][hPhe(3-Cl-4-CF3)][X72][Ac5c][NMeChg][NMeD]-Piperidide; lactam N-11): less than 6.30.
With `CCCC[C@@H]1NC(=O)[C@H](Cc2cccc(I)c2)NC(=O)CN(C)C(=O)[C@H](Cc2ccc(Cl)cc2)N(C)C(=O)CN(C)C(=O)CN(C)C(=O)[C@H]([C@@H](C)CC)NC(=O)[C@H](CC(C)C)N(C)C(=O)C[C@@H](C(=O)N2CCCCC2)N(C)C(=O)[C@H](CC(C)C)NC(=O)[C@H](Cc2ccccc2C(F)(F)F)N(C)C1=O` [Compound 813] ([NMeL]I[Sar][Sar][NMePhe(4-Cl)][Sar][Phe(3-I)][Nle][NMePhe(2-CF3)]L[NMeD]-Piperidide; lactam N-11) the figure was less than 6.30; with `CCCC[C@@H]1NC(=O)[C@H](Cc2cccc(I)c2)NC(=O)CN(C)C(=O)[C@H](Cc2ccc(Cl)cc2)N(C)C(=O)CN(C)C(=O)CN(C)C(=O)[C@H]([C@@H](C)CC)NC(=O)[C@H](CC(C)C)N(C)C(=O)C[C@@H](C(=O)N2CCCCC2)N(C)C(=O)[C@H](CC(C)C)NC(=O)[C@H](Cc2ccc(OC(F)(F)F)cc2)N(C)C1=O` [Compound 819] ([NMeL]I[Sar][Sar][NMePhe(4-Cl)][Sar][Phe(3-I)][Nle][NMeY](CF3)L[NMeD]-Piperidide; lactam N-11), less than 6.30.
With `CC[C@H](C)[C@@H]1NC(=O)[C@H](C)N(C)C(=O)C[C@@H](C(=O)N2CCCCC2)N(C)C(=O)[C@H](C(C)C)N(C)C(=O)C2(CCCC2)NC(=O)[C@H](Cc2ccc(F)cc2)N(C)C(=O)[C@H](CCc2ccc(C(F)(F)F)c(Cl)c2)NC(=O)CN(C)C(=O)[C@H](CC2CCCCC2)N(C)C(=O)CN(C)C(=O)CN(C)C1=O` [Compound 821] ([NMeA]I[Sar][Sar][NMeCha][Sar][hPhe(3-Cl-4-CF3)][NMePhe(4-F)][Ac5c][NMeV][NMeD]-Piperidide; lactam N-11), the pIC50 was less than 6.30.

The values are drawn from patent publication US20240148821A1, “PHARMACEUTICAL USE OF CYCLIC PEPTIDE COMPOUND” (CHUGAI SEIYAKU KABUSHIKI KAISHA, priority 2021, published 2024).
